In brackets after ≈: the same amount, converted by molar mass.

Format in all cases: functional
One assay concerns Pichia kudriavzevii. Put plainly: Antifungal activity against Candida krusei Berkout KCCM 11655 after 1 day by broth dilution method. Conditions: KCCM 11655, 24 h. A general note: Broth dilution looks for growth in wells or tubes with falling amounts of substance.
In a further assay the test system is Candida tropicalis. Put plainly: Antifungal activity against Candida tropicalis Berkout KCCM 50662 after 1 day by broth dilution method.
The next assay concerns Aspergillus flavus. Put plainly: Antifungal activity against Aspergillus flavus KCCM 11899 after 2 days by broth dilution method.
The subject of a further assay is Candida albicans. Briefly: Antifungal activity against Candida albicans Berkout KCCM 50235 after 1 day by broth dilution method. As to conditions: KCCM 50235, 24 h.
The subject of another assay is Aspergillus niger. Put plainly: Antifungal activity against Aspergillus niger KCTC 1231 after 2 days by broth dilution method.
A further assay relates to Cryptococcus neoformans. Briefly: Antifungal activity against Cryptococcus neoformans KCCM 50564 after 1 day by broth dilution method. As to conditions: KCCM 50564, 24 h.
Setting [1] is: Candida tropicalis, KCCM 50662, 24 h, read-out: MIC.
[2] abbreviates: Aspergillus flavus, KCCM 11899, 48 h, read-out: MIC.
Setting [3] is: Aspergillus niger, KCTC 1231, 48 h, read-out: MIC.

Regarding `O=C1C(Cl)=C(Nc2ccccc2)C(=O)c2cnncc21`, the minimum inhibitory concentration (MIC) against Pichia kudriavzevii turned out to be 25 mg/L (≈ 87.5 µM); in the assay with Candida tropicalis (setting [1]) it was 25 mg/L (≈ 87.5 µM); in the assay with Aspergillus flavus (setting [2]) it was 25 mg/L (≈ 87.5 µM); with Candida albicans, 50 mg/L (≈ 175 µM); in the assay with Aspergillus niger (setting [3]), 100 mg/L (≈ 350 µM); with Cryptococcus neoformans it was 3.2 mg/L (≈ 11.2 µM).
`O=C1C(Cl)=C(Nc2ccc(F)cc2)C(=O)c2cnncc21`: the MIC is 50 mg/L (≈ 165 µM) against Pichia kudriavzevii; 50 mg/L (≈ 165 µM) in the assay with Candida tropicalis (setting [1]); over 100 mg/L with Aspergillus flavus (setting [2]); 50 mg/L (≈ 165 µM) with Candida albicans; over 100 mg/L with Aspergillus niger (setting [3]); 6.3 mg/L (≈ 20.7 µM) against Cryptococcus neoformans.
As to `O=C1C(Cl)=C(Nc2ccc(Cl)cc2)C(=O)c2cnncc21`, the MIC with Pichia kudriavzevii was 6.3 mg/L (≈ 19.7 µM); in the assay on Candida tropicalis (setting [1]), 12.5 mg/L (≈ 39 µM); with Aspergillus flavus (setting [2]), over 100 mg/L; with Candida albicans it was 12.5 mg/L (≈ 39 µM); in the assay with Aspergillus niger (setting [3]), over 100 mg/L; with Cryptococcus neoformans, 100 mg/L (≈ 312 µM).
As to `O=C1C(Sc2ccc(F)c(F)c2)=C(Sc2ccc(F)c(F)c2)C(=O)c2cnncc21`, the MIC in the assay with Pichia kudriavzevii is over 100 mg/L; in the assay on Candida tropicalis (setting [1]), 12.5 mg/L (≈ 27.9 µM); in the assay on Aspergillus flavus (setting [2]), 25 mg/L (≈ 55.8 µM); against Candida albicans, 3.2 mg/L (≈ 7.14 µM); with Aspergillus niger (setting [3]), 3.2 mg/L (≈ 7.14 µM); in the assay with Cryptococcus neoformans, 100 mg/L (≈ 223 µM).
`O=C1C(Sc2ccc(F)cc2)=C(Sc2ccc(F)cc2)C(=O)c2cnncc21`: the minimal inhibitory concentration (MIC) against Pichia kudriavzevii was 100 mg/L (≈ 242 µM); in the assay on Candida tropicalis (setting [1]), 6.3 mg/L (≈ 15.3 µM); in the assay with Aspergillus flavus (setting [2]), over 100 mg/L; in the assay on Candida albicans, 6.3 mg/L (≈ 15.3 µM); with Aspergillus niger (setting [3]), 12.5 mg/L (≈ 30.3 µM); with Cryptococcus neoformans, over 100 mg/L.
For the molecule `COc1ccc(SC2=C(Sc3ccc(OC)cc3)C(=O)c3cnncc3C2=O)cc1`, the MIC is 100 mg/L (≈ 229 µM) against Pichia kudriavzevii; 100 mg/L (≈ 229 µM) in the assay on Candida tropicalis (setting [1]); over 100 mg/L in the assay with Aspergillus flavus (setting [2]); 25 mg/L (≈ 57.3 µM) against Candida albicans; 12.5 mg/L (≈ 28.6 µM) with Aspergillus niger (setting [3]); over 100 mg/L against Cryptococcus neoformans.
Take `O=C1C(Cl)=C(Nc2ccc(I)cc2)C(=O)c2cnncc21`: the MIC is 12.5 mg/L (≈ 30.4 µM) with Pichia kudriavzevii; 12.5 mg/L (≈ 30.4 µM) in the assay on Candida tropicalis (setting [1]); 50 mg/L (≈ 121 µM) in the assay with Aspergillus flavus (setting [2]); 12.5 mg/L (≈ 30.4 µM) in the assay with Candida albicans; over 100 mg/L with Aspergillus niger (setting [3]); 100 mg/L (≈ 243 µM) against Cryptococcus neoformans.
For `Nc1cccc2cnncc12`, the MIC in the assay on Pichia kudriavzevii is 100 mg/L (≈ 689 µM); in the assay on Candida tropicalis (setting [1]), over 100 mg/L; in the assay on Aspergillus flavus (setting [2]), 100 mg/L (≈ 689 µM); against Candida albicans, over 100 mg/L; in the assay on Aspergillus niger (setting [3]) it was over 100 mg/L; against Cryptococcus neoformans, 25 mg/L (≈ 172 µM).
As for `O=C1C=C(Nc2ccc(Br)cc2)C(=O)c2cnncc21`, the MIC against Pichia kudriavzevii was 12.5 mg/L (≈ 37.9 µM); in the assay on Candida tropicalis (setting [1]) it was 3.2 mg/L (≈ 9.69 µM); in the assay on Aspergillus flavus (setting [2]), 50 mg/L (≈ 151 µM); with Candida albicans, 12.5 mg/L (≈ 37.9 µM); in the assay on Aspergillus niger (setting [3]), 50 mg/L (≈ 151 µM); in the assay on Cryptococcus neoformans, 12.5 mg/L (≈ 37.9 µM).
`O=C1C(Sc2ccc(Br)cc2)=C(Sc2ccc(Br)cc2)C(=O)c2cnncc21`: the MIC is over 100 mg/L in the assay with Pichia kudriavzevii; 50 mg/L (≈ 93.6 µM) in the assay with Candida tropicalis (setting [1]); 50 mg/L (≈ 93.6 µM) in the assay on Aspergillus flavus (setting [2]); 50 mg/L (≈ 93.6 µM) in the assay on Candida albicans; over 100 mg/L with Aspergillus niger (setting [3]); over 100 mg/L against Cryptococcus neoformans.
On to `O=C1C(Cl)=C(Nc2ccc(F)c(F)c2)C(=O)c2cnncc21`, for which the minimum inhibitory concentration (MIC) in the assay with Pichia kudriavzevii was over 100 mg/L; in the assay with Candida tropicalis (setting [1]), 3.2 mg/L (≈ 9.95 µM); with Aspergillus flavus (setting [2]), 100 mg/L (≈ 311 µM); in the assay with Candida albicans, 25 mg/L (≈ 77.7 µM); in the assay on Aspergillus niger (setting [3]), 100 mg/L (≈ 311 µM); with Cryptococcus neoformans it was 50 mg/L (≈ 155 µM).
With `O=C1C(Cl)=C(Nc2cccc(C(F)(F)F)c2)C(=O)c2cnncc21`, the minimal inhibitory concentration (MIC) against Pichia kudriavzevii stood at 100 mg/L (≈ 283 µM); with Candida tropicalis (setting [1]) it was 12.5 mg/L (≈ 35.3 µM); in the assay with Aspergillus flavus (setting [2]) it was 50 mg/L (≈ 141 µM); in the assay on Candida albicans, 25 mg/L (≈ 70.7 µM); in the assay on Aspergillus niger (setting [3]) it was 50 mg/L (≈ 141 µM); against Cryptococcus neoformans, 50 mg/L (≈ 141 µM).
In the case of `Cc1ccc(NC2=CC(=O)c3cnncc3C2=O)cc1C`, the MIC against Pichia kudriavzevii was 50 mg/L (≈ 179 µM); with Candida tropicalis (setting [1]) it was 100 mg/L (≈ 358 µM); in the assay on Aspergillus flavus (setting [2]), over 100 mg/L; with Candida albicans it was 3.2 mg/L (≈ 11.5 µM); in the assay with Aspergillus niger (setting [3]), over 100 mg/L; against Cryptococcus neoformans it was 25 mg/L (≈ 89.5 µM).
As to `O=C1C(Sc2ccccc2)=C(Sc2ccccc2)C(=O)c2cnncc21`, the minimal inhibitory concentration (MIC) against Candida tropicalis is over 100 mg/L; with Candida tropicalis (setting [1]) it was 100 mg/L (≈ 266 µM); against Aspergillus flavus, 100 mg/L (≈ 266 µM); with Aspergillus flavus (setting [2]), over 100 mg/L; in the assay with Aspergillus niger it was 6.3 mg/L (≈ 16.7 µM); with Aspergillus niger (setting [3]), 6.3 mg/L (≈ 16.7 µM).
`O=C1C(Cl)=C(Nc2cccc(Cl)c2)C(=O)c2cnncc21`: the MIC in the assay on Pichia kudriavzevii turned out to be 25 mg/L (≈ 78.1 µM); in the assay with Candida tropicalis (setting [1]) it was 25 mg/L (≈ 78.1 µM); with Aspergillus flavus (setting [2]), 25 mg/L (≈ 78.1 µM); in the assay on Candida albicans, 25 mg/L (≈ 78.1 µM); in the assay with Aspergillus niger (setting [3]) it was 12.5 mg/L (≈ 39 µM); in the assay with Cryptococcus neoformans, 3.2 mg/L (≈ 10 µM).
On to `Cc1ccc(NC2=CC(=O)c3cnncc3C2=O)cc1`, for which the MIC was determined as 12.5 mg/L (≈ 47.1 µM) in the assay on Pichia kudriavzevii; 12.5 mg/L (≈ 47.1 µM) with Candida tropicalis (setting [1]); 25 mg/L (≈ 94.2 µM) with Aspergillus flavus (setting [2]); 6.3 mg/L (≈ 23.7 µM) against Candida albicans; 50 mg/L (≈ 188 µM) with Aspergillus niger (setting [3]); 6.3 mg/L (≈ 23.7 µM) against Cryptococcus neoformans.
Turning to `O=C1C(Sc2ccc(O)cc2)=C(Sc2ccc(O)cc2)C(=O)c2cnncc21`, the MIC against Pichia kudriavzevii was over 100 mg/L; in the assay on Candida tropicalis (setting [1]), over 100 mg/L; in the assay with Aspergillus flavus (setting [2]), over 100 mg/L; in the assay with Candida albicans, 100 mg/L (≈ 245 µM); with Aspergillus niger (setting [3]) it was over 100 mg/L; with Cryptococcus neoformans it was over 100 mg/L.
Consider `Cc1cccc(SC2=C(Sc3cccc(C)c3)C(=O)c3cnncc3C2=O)c1`, for which the MIC in the assay on Pichia kudriavzevii is over 100 mg/L; in the assay with Candida tropicalis (setting [1]), 50 mg/L (≈ 124 µM); in the assay with Aspergillus flavus (setting [2]), 100 mg/L (≈ 247 µM); in the assay on Candida albicans, 12.5 mg/L (≈ 30.9 µM); with Aspergillus niger (setting [3]), 6.3 mg/L (≈ 15.6 µM); against Cryptococcus neoformans, over 100 mg/L.
With `Nc1ccc(N)c2cnncc12`, the MIC with Pichia kudriavzevii is 100 mg/L (≈ 624 µM); with Candida tropicalis (setting [1]), over 100 mg/L; in the assay with Aspergillus flavus (setting [2]), 100 mg/L (≈ 624 µM); against Candida albicans it was over 100 mg/L; in the assay with Aspergillus niger (setting [3]), over 100 mg/L; against Cryptococcus neoformans it was 6.3 mg/L (≈ 39.3 µM).
As for `O=C1C=C(Nc2ccc(F)cc2)C(=O)c2cnncc21`, the MIC with Pichia kudriavzevii was 25 mg/L (≈ 92.9 µM); in the assay on Candida tropicalis (setting [1]), 25 mg/L (≈ 92.9 µM); in the assay on Aspergillus flavus (setting [2]), 100 mg/L (≈ 371 µM); against Candida albicans, 50 mg/L (≈ 186 µM); in the assay with Aspergillus niger (setting [3]) it was over 100 mg/L; with Cryptococcus neoformans it was 6.3 mg/L (≈ 23.4 µM).
On to `COc1ccc(NC2=CC(=O)c3cnncc3C2=O)cc1`, for which the MIC with Pichia kudriavzevii was 12.5 mg/L (≈ 44.4 µM); in the assay with Candida tropicalis (setting [1]), 6.3 mg/L (≈ 22.4 µM); with Aspergillus flavus (setting [2]), 25 mg/L (≈ 88.9 µM); in the assay on Candida albicans, 12.5 mg/L (≈ 44.4 µM); in the assay on Aspergillus niger (setting [3]), 25 mg/L (≈ 88.9 µM); against Cryptococcus neoformans, 6.3 mg/L (≈ 22.4 µM).
In the case of `O=C1C(Cl)=C(Nc2ccc(Br)cc2)C(=O)c2cnncc21`, the MIC with Pichia kudriavzevii is 25 mg/L (≈ 68.6 µM); with Candida tropicalis (setting [1]) it was 12.5 mg/L (≈ 34.3 µM); in the assay on Aspergillus flavus (setting [2]), 25 mg/L (≈ 68.6 µM); against Candida albicans it was 25 mg/L (≈ 68.6 µM); in the assay on Aspergillus niger (setting [3]), 25 mg/L (≈ 68.6 µM); in the assay on Cryptococcus neoformans, 3.2 mg/L (≈ 8.78 µM).
On to `O=C1C(Sc2cccc(Cl)c2)=C(Sc2cccc(Cl)c2)C(=O)c2cnncc21`, for which the minimum inhibitory concentration (MIC) in the assay on Pichia kudriavzevii was over 100 mg/L; in the assay on Candida tropicalis (setting [1]) it was 100 mg/L (≈ 225 µM); in the assay with Aspergillus flavus (setting [2]), over 100 mg/L; with Candida albicans, 12.5 mg/L (≈ 28.1 µM); with Aspergillus niger (setting [3]), 6.3 mg/L (≈ 14.1 µM); against Cryptococcus neoformans, over 100 mg/L.
In the case of `Nc1nc(=O)[nH]cc1F` [FLUCYTOSINE], the minimal inhibitory concentration (MIC) in the assay on Pichia kudriavzevii was 50 mg/L (≈ 387 µM); with Candida tropicalis (setting [1]), 12.5 mg/L (≈ 96.8 µM); in the assay with Aspergillus flavus (setting [2]) it was 100 mg/L (≈ 775 µM); against Candida albicans, 25 mg/L (≈ 194 µM); in the assay with Aspergillus niger (setting [3]), 25 mg/L (≈ 194 µM); against Cryptococcus neoformans, 12.5 mg/L (≈ 96.8 µM).

A word on the MIC: it is the lowest concentration found to suppress growth.

The values are drawn from ChEMBL document CHEMBL1139171, “Synthesis and antifungal activity of 6-arylamino-phthalazine-5,8-diones and 6,7-bis(arylthio)-phthalazine-5,8-diones” (2007).
